We go through 2 compounds from patent publication US10233201B2, “Class of HDAC inhibitors expands the renal progenitor cells population and improves the rate of recovery from acute kidney injury” (University of Pittsburgh—Of the Commonwealth System of …, priority 2012, dated 2019).

Values joined by “and” are separate entries in the source; they are usually repeats but may differ in a detail not shown here. Equal values may be shown once.

The test system of one data set is zebrafish larvae. The experiment in a line: Phenotypic scoring of edema and survival in zebrafish larvae at 72 hpf. In kind it is in vivo. The following applies: 25 μM PBA, 200 nM TSA. From the text:
(§1) PTBA was synthesized as described below. Hydroxyurea and aphidicolin were obtained from Sigma-Aldrich.
Wild type: no visible edema or developmental delay.

Data set [1] deals with renal progenitor cells (lhx1a expression). The experiment in a line: In situ hybridization for lhx1a expression in 10-somite embryos (renal progenitor cell expansion). The format is in vivo. The following applies: 10-somite embryos. On the procedure:
as §1
(§2) In situ hybridization and immunocytochemistry: In situ hybridization was performed as previously described with some modifications. 142 Hybridization temperature was 65° C. Embryos were blocked in 2% blocking reagent (Roche) with 5% sheep serum in MAB (100 mM maleic acid and 150 mM NaCl [pH 7.5]). Whole-mount immunocytochemistry with 1:25 mouse anti-α6F antibody (Developmental Studies Hybridoma Bank) and 1:100 Cy3 secondary antibody (Jackson ImmunoResearch) was performed as described previously. 108 Embryos were embedded in JB-4 for sectioning per the manufacturer's instructions (Polysciences), sectioned at 5 μm, and mounted with Cytoseal 60 (Richard-Allan Scientific).
The remaining PTBA analogs were synthesized.
In situ hybridization for lhx1a was performed as described above. […] Compounds were classified as effective, partially-effective or ineffective based on comparison to the effects of PTBA at a given concentration.
Testing of the compounds is on-going, but for those tested, Table 3 provides first pass EC50s based upon colormetric in situ hybridizations for the Lhx1a mRNA expression levels. After the procedure is run, in situ hybridization is done for the lhx1 mRNA expression and the number of embryos that show an expanded kidney field is manually counted to establish the percent of embryos showing expansion. Then the EC50 is determined by plotting the percent expansion in Excel, graphing the results and using the trendline function to determine the 50 percent point. […] For UPHD-00186, the 4 values for EC50 are shown in Table 3 for the corresponding expression in zebrafish embryos employed an artificial intelligence-based image analysis method termed cognition network technology (CNT) for n=4.

The subject of data set [2] is myod1 (somites), fli1a (vasculature), ntla (notochord). Put plainly: In situ hybridization for mesodermal markers myod1, fli1a, ntla in 10-somite embryos. In kind it is in vivo, zebrafish. The settings on record: 25 μM PBA. On the procedure:
as §1, §2

For data set [3], the system named is human HDACs (HeLa cell nuclear extract). The experiment in a line: Fluorescence histone deacetylation assay with HeLa cell nuclear extract. The following applies: 5 mM compound, 10 μg HeLa extract. In kind it is biochemical. As for the experimental part:
To evaluate this in vitro, the deacetylation of a fluorescent peptide substrate was measured in the presence of human HDACs.
In vitro HDAC activity assays were performed using a fluorescence HDAC assay kit (Active Motif) according to the manufacturer's instructions. For maintaining compound solubility at 5 mM, the final DMSO concentration in all assay wells was increased to 5%. Fluorescence was detected using an M5 Plate Reader ([…])

The test system of a further data set is histone H4 acetylation. Put plainly: Histone H4 hyperacetylation Western blot in embryos. In kind it is in vivo, zebrafish. The following applies: 24 hpf embryos treated 6 hours; 3 μM PTBA, 25 μM PBA, 200 nM TSA. On the procedure:
It was next determined whether the HDACi function of PTBA was quantifiable in vivo. 24 hpf embryos were treated with 3 μM PTBA, 25 μM PBA, or 200 nM TSA for 6 hours. Protein extracts were prepared and immunoblotted with an anti-hyperacetylated histone H4 antibody. […] Furthermore, increasing the compound concentration caused a corresponding increase in hyperacetylation (FIG. 21).
SDS-PAGE and Western blotting were performed as described previously with some modifications (Noel, E. S. et al. Organ-specific requirements for Hdac1 in liver and pancreas formation. Dev Biol 322, 237-250, (2008)). Proteins were separated on 18% SDS-PAGE gels. Membranes were incubated at 4° C. overnight with 1:1000 anti-hyperacetylated histone H4 antibody (06-946, Millipore) or 1:1000 anti-α-tubulin antibody (Sigma-Aldrich) in PBT containing 5% nonfat milk.

Data set [4] has as its system HDAC activity in DSI9 mouse erythroleukemia cells. The following applies: 5 mM; cited from earlier work.
In data set [5] the test system is kidney field (cad17:EGFP). The experiment in a line: Image-based high-content screen, Tg(cad17:EGFP) embryos, CNT analysis. The settings on record: 4 individual values (n=4). In kind it is in vivo, zebrafish. From the text:
Initial studies, above, used a phenotypic marker of the ability to expand the renal progenitor cell field in larval zebrafish, and identified the first member of a novel class of HDAC inhibitors, PTBA as well as a few structural and functional analogs. These findings form the basis for further study. However, this technology is limited as it is dependent on subjective interpretation of a subtle phenotypic change in the fish. Therefore, in order to develop a more objective and higher content screen, we developed an image-based high-content screen using transgenic zebrafish (Vogt A, et al. Automated image-based phenotypic analysis in zebrafish embryos. Dev Dyn. 2009; 238(3):656-63). […] Tg(Cad17:EGFP) zebrafish is a transgenic line that was prepared by isolation of an approximately 5 kb (5066 bp) promoter element and approximately 3 kb (3221 bp) first intron element from the cadherin 17 locus, cloning it into a plasmid along with the enhanced GFP open reading frame and injecting if into zebrafish embryos to established transgenic lines using the meganuclease transgenesis method (Soroldoni et al., Simple and efficient transgenesis with meganuclease constructs in zebrafish, Methods Mol Bio 2009; 546: 117-30.). […]
For all second-generation compounds, the cad17:EGFP transgene is used as the primary readout to assay for expansion of kidney field (FIG. 35). […]

Data set [6] relates to BALB/c mice, severe IR-AKI. Put plainly: Severe ischemia-reperfusion AKI (IR-AKI). In kind it is in vivo, mouse. On the procedure:
Surgeries were performed on a water-bath heated platform at 38° C. on 10-12 week old male BALB/c mice. For moderate IR-AKI, mice underwent a right nephrectomy followed by left renal pedicle clamping (800 μm pressure clamp, FST 18052-03). The clamp was released after 26 minutes, and tissue reperfusion was confirmed before completing the surgery. Mice were treated daily with indicated doses of compounds or equivalent volume of 20% 2-hydroxypropyl-β-cyclodextrin in water as vehicle control starting 24 h after injury. Since initial injury with this model is variable, mice were randomly allocated vehicle or m4PTB treatment if their serum creatinine levels were 0.8 to 1.2 mg/dl 24 h post IR injury. Other mice were excluded from further analysis and euthanized. To induce severe IR-AKI, mice underwent left renal pedicle clamping for 30 minutes and delayed contralateral nephrectomy was performed after 8 days.
For mouse studies, kidney sections were stained using Periodic Acid-Schiff (PAS) to assess renal tubular injury. Tubular injury (casts, dilated tubules, epithelial cell blebbing, and vacuolization, loss of brush borders or nuclei) was scored as described. Sirius red staining was performed using an established protocol used to evaluate renal fibrosis/collagen accumulation in kidney sections. To quantify Sirius red staining we used an Olympus BX-41 microscope equipped with an Olympus DP-72 digital camera system and polarizing light filter. Results are expressed as the mean percent fibrosis for all of the images per slide region (Sirius red positive/total surface area).
We used of 2-hydroxypropyl-β-cyclodextrin (CD, Sigma), a low toxicity drug formulation vehicle that has been well characterized and used extensively as a hydrophobic drug delivery vehicle. We could achieve concentrations of up to ˜12 mg/ml of PTBA analogues in 20% CD in water (100 mg/kg in volumes of ˜150-250 μl), and daily IP injections with 200 μl 20% CD in water had no effect on renal functional recovery following IR-AKI. Therefore all studies were performed using compounds dissolved in 20% CD. To assess dosing and biological activity of PTBA analogues in mice, CD1 mice were injected with varying doses of compounds IP and kidneys isolated at different time point for histone extraction and analysis of histone H4 acetylation, a marker of HDAC inhibitor activity, as outlined below. Based on results of these studies, mice were treated daily with 1, 10, 50 or 100 mg/kg of compound or equivalent volume of 20% CD vehicle control starting 24 h after injury.
˜30 μl blood was obtained by tail vein bleed at different time points, and serum samples frozen after confirming that they had not undergone hemolysis (which interferes with enzymatic analysis for serum creatinine). Serum creatinine was evaluated in duplicate samples using a commercially available enzymatic cascade assay (Pointe Scientific, requires only ˜7 μl of serum). […] Blood Urea Nitrogen (BUN) was determined in duplicate samples using a colorimetric enzymatic assay kit (Infinity Urea, Thermo Scientific), and spot urinary albumin/creatinine ratios determined using a mouse albumin ELISA and urinary creatinine assay kit (Albuwell and Creatinine Companion, Exocell).
Compounds 22, 25, 29, 36, and 186 were injected for 7 days at […] starting 24 hrs after severe IR treatment. […] Fibrotic (scar) tissue was measured using Sirus Red after 28 days for various markers of fibrosis.

Data set [7] deals with mouse models of unilateral ureteral obstruction (UUO). The experiment in a line: Unilateral ureteral obstruction (UUO). The format is in vivo. From the text:
The model of unilateral ureteral obstruction generates progressive renal fibrosis. Surgically created UUO can be experimentally manipulated with respect to timing, severity, and duration, while reversal of the obstruction permits the study of recovery.
FIG. 47 represents the results of the testing of compounds UPHD-00022, UPHD-00025 (PTBA), UPHD-00029, UPHD-00036, and UPHD-00186, for their efficacy in mouse models of unilateral ureteral obstruction (UUO) as follows: in the UUO models, one ureter was ligated for 7 days and compounds were delivered via IP for days 0 to 6. At day 7 kidneys were harvested for Sirius red staining. […] Therefore, in the models tested, the only compound proven to be effective in all models and with significant delayed onset of treatment is UPHD-186.

[8] abbreviates: 7 days at 50 mg/ml starting 24 hrs after severe IR.

With `O=C(O)CCCc1ccccc1` [PBA, 4-phenylbutanoic acid], the “death (lethality) by 72 hpf” value with zebrafish larvae (n=90) is listed as 8%. The “larvae with edemic phenotype / pericardial edema at 72 hpf” value in the data set with zebrafish larvae (treated from 2 hpf, 3 μM PTBA) stood at 23%. In addition, the “concentration producing lhx1a expansion consistent with 3 μM PTBA” value in data set [1] turned out to be 25 µM. In addition, in data set [2] (3 μM PTBA (slightly decreased), 200 nM TSA), the “embryos with decreased myod1 expression” value turned out to be 57%. In data set [2] (3 μM PTBA), the “embryos with increased ntla expression” value was determined as 87%. Further, in data set [2] (200 nM TSA), the “embryos with decreased fli1a expression” value is 78%. Further, the “HDAC activity, % of the control value” in [3] is listed as 30%; in [4] it was 19%. Besides, the “histone H4 hyperacetylation” value with histone H4 acetylation is reported as “hyperacetylation was observed”.
For the compound `O=C(CCCSc1ccccc1)Nc1ccccc1O` [UPHD-00186, N-(2-hydroxyphenyl)-4-(phenylsulfanyl) butanamide], in data set [5], the EC50 – broadly, the concentration that produces a half-maximal response – was 649 nM and 810 nM and 818 nM. The same compound returned an EC50 in data set [5] (Danio rerio) of 587 nM. For the same compound, in [6] (setting [8]), the “fibrosis after 28 days (Sirus Red, markers of fibrosis)” value is listed as “most reduction in fibrosis” and the “serum creatinine at day 9” value is on record as “better activity”. Besides, the “effect of timing of treatment in severe IR-AKI” value in [6] (FIG. 46) is reported as “has still a significant effect on IR-AKI after more than 7 days”. Besides, in data set [6] (treatment 3 days after IR-AKI, FIG. 48), the “post injury fibrosis with delayed treatment” value is given as “still markedly reduces post injury fibrosis”. In addition, the “reduction in post injury fibrosis at various dosages” value in [6] (various dosages, FIG. 45) was “efficient at elevated doses”. Also, the “fibrosis (Sirius red) and expression of fibrosis markers in UUO kidney” value in data set [7] (IP days 0 to 6, kidneys harvested at day 7) was “reduce both fibrosis and expression of fibrosis markers”. For the same compound, the “prevention of post injury fibrosis in UUO compared with Vorinostat (SAHA)” value in data set [7] (mouse, in vivo) is “more effective than the FDA approved HDACi drug Vorinostat (SAHA)”.
